Assay results as given in patent publication US20140187556A1, “ANTI-AMYLOID COMPOUNDS AND METHODS” (Treventis Corporation, priority 2011, published 2014).

What was measured:
[1] = Metabolic stability in mouse liver microsomes; format: in vitro ADME; conditions: 1 μM compound, 0.5 mg/mL microsomal protein, 1 mM NADPH
Procedure: This assay is used to determine the percent remaining and intrinsic clearance of a test compound incubated with pooled mouse liver microsomes in the presence of NADPH. Further details on this method may be found in Jeffrey P, et al., Utility of metabolic stability screening: comparison of in vitro and in vivo clearance. enobiotica. 2001 August-September; 31(8-9):591-8 and Lin J H, et al., Role of pharmacokinetics and metabolism in drug discovery and development. Pharmacol Rev. 1997; 49(4):403-49; each of which is hereby incorporated by reference. Test compound was formulated in 300 μL of DMSO at 10 mM and was diluted to 1 μM with final concentration of organic solvent <0.25% for the experiment. Pooled liver microsomes were prepared from male mice, with 1 mM NADPH. Test compound was incubated at 37 degrees Celsius in buffer containing 0.5 mg/mL microsomal protein; the reaction was initiated by adding cofactors and sampled at 0, 10, 20, 30, and 60 minutes. A positive control (5 μM testosterone) was incubated and initiated in parallel for quality control. Samples were analyzed using an LTQ-Orbitrap XL mass spectrometer; HRMS was used to determine the peak area response ratio (peak area corresponding to test compound or control divided by that of an analytical internal standard) without running a standard curve.
Results were reported for selected compounds in the table of Example 1, as % test compound remaining after 60 minutes. Compounds which have less than about 5% remaining are not considered to be metabolically stable in mouse liver microsomes, while compounds with more than about 5% remaining are considered to be metabolically stable in mouse liver microsomes.

Aβ40 = target: T1, Aβ40 (Homo sapiens, UniProt P05067); assay: Thioflavin T (ThT) Aβ aggregation assay; format: biochemical; conditions: 20 μM Aβ40, 37 degrees C
T1 construct: pre-treated Aβ40 (40 μM in 20 mM Tris, pH 7.4)
T1 sequence (P05067 672-711 limits assumed): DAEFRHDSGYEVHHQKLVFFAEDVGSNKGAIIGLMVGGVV
Procedure: Aβ40 (1.0 mg) was pre-treated in a 1.5 mL microfuge tube with HFIP (1 mL) and sonicated for 20 min to disassemble any pre-formed Aβ aggregates. The HFIP was removed with a stream of argon and the Aβ dissolved in Tris base (5.8 mL, 20 mM, pH ˜10). The pH was adjusted to 7.4 with concentrated HCl (−10 μL) and the solution filtered using a syringe filter (0.2 μm) before being used.
The kinetic ThT assay for Aβ aggregation is similar to that of Chalifour et al (Chalifour et al, 2003, J. Biol. Chem. 278:34874-81). Briefly, pre-treated Aβ40 (40 μM in 20 mM Tris, pH 7.4), was diluted with an equal volume of 8 μM ThT in Tris (20 mM, pH 7.4, 300 mM NaCl). Aliquots of Aβ/ThT (200 μL) were added to wells of a black polystyrene 96-well plate, followed by 2 μL of a compound in DMSO (variable concentration), or DMSO alone (controls). Incubations were performed in triplicate and were taken to contain 20 μM Aβ, various concentration of compound in 20 mM Tris, pH 7.4, 150 mM NaCl, 1% DMSO. Plates were covered with clear polystyrene lids and incubated at 37 degrees C. in a Tecan Genios microplate reader. Fluorescence readings (λex=450 nm, λem=480 nm) were taken every 15 min., after first shaking at high intensity for 15 s and allowing to settle for 10 s before each reading. Active compounds attenuated the increase in fluorescence over time that occurred in controls.

[2] = Blood-brain barrier penetration potential using MDR1-MDCK cell monolayers; format: in vitro ADME; conditions: dog; for Papp A→B at 120 min, 5 µM: MDCK-MDR1, apical dosing, pH 7.4, read-out: Papp A-B × 10^−6 cm/s; for Papp B→A at 120 min, 5 µM: MDCK-MDR1, basolateral dosing, pH 7.4, read-out: Papp B-A × 10^−6 cm/s; for efflux ratio at 120 min, 5 µM: MDCK-MDR1, pH 7.4, read-out: Efflux ratio (Papp B-A)/(Papp A-B)
Source text: This assay is used to determine the blood-brain barrier (BBB) penetration potential of a test compound using MDR1-MDCK cell monolayers. Further details on this method may be found in Taub M E, et al., Functional assessment of multiple Pglycoprotein (P-gp) probe substrates: Influence of cell line and modulator concentration on P-gp activity. Drug Metab Dispos. 2005 November; 33(11): 1679-87 and Wang Q, et al., Evaluation of the MDR-MDCK cell line as a permeability screen for the blood-brain barrier. Int J. Pharm. 2005 Jan. 20; 288(2):349-59; each of which is hereby incorporated by reference. Test compound was formulated in 300 μL of DMSO at 10 mM and diluted to 5 μM in HBSSg with maximum DMSO concentration not greater than 1%. Confluent monolayers of MDR1-MDCK cells, 7 to 11 days old, were used. A receiver well, having apical and basolateral sides at pH 7.4, was used with 1% BSA in modified Hanks buffer (HBSSg). Two monolayers were dosed with test compound in each direction (N=2). Apical side dosing was used for A-B assessment and basolateral side was used for B-A assessment; taken together, this information provides a bidirectional permeability potential. Apical and basolateral sides were sampled at 120 minutes and concentrations of test compound were determined using an LC-MS/MS method with a minimum 4 point calibration curve. Apparent permeability (Papp) in both directions (A-B and B-A) was calculated, as was the efflux ratio (Papp B-A)/(Papp A-B).

SMILES	Stability in mouse liver microsomes (% test compound remaining after 60 min) [1] [%]	IC50 (Aβ40) [µM]	Papp A→B at 120 min, 5 µM [2] [×10⁻⁶ cm/s]	Papp B→A at 120 min, 5 µM [2] [×10⁻⁶ cm/s]	efflux ratio at 120 min, 5 µM [2]
CN(C)C(=O)c1cccc(-c2ccc([N+](=O)[O-])c(NCc3ccccc3)c2)c1 [TRV 1102, 3′-(benzylamino)-N,N-dimethyl-4′-nitrobiphenyl-3-carboxamide]	<1.0	4.11 ± 1.2			
CN1CCN(C(=O)c2cccc(-c3ccc([N+](=O)[O-])c(NCc4ccccc4)c3)c2)CC1 [TRV 1115, (3′-(benzyl amino)-4′-nitrobiphenyl-3-yl)(4-methylpiperazin-1-yl)methanone]	<1.0	2.67 ± 0.1			
CC(O)c1cccc(-c2ccc([N+](=O)[O-])c(NCc3ccccc3)c2)c1 (centres unmarked) [TRV 1129, 1-(3′-(benzylamino)-4′-nitrobiphenyl-3-yl)ethanol]	<1.0	6.49 ± 0.21			
CC(C)N(C(=O)c1cccc(-c2ccc([N+](=O)[O-])c(NCc3ccccc3)c2)c1)C(C)C [TRV 1112, 3′-(benzylamino)-N,N-diisopropyl-4′-nitrobiphenyl-3-carboxamide]	<1.0	1.41 ± 1.11			
NS(=O)(=O)c1cccc(-c2ccc([N+](=O)[O-])c(NCc3ccccc3)c2)c1 [TRV 1122, 3′-(benzylamino)-4′-nitro-[1,1′-biphenyl]-3-sulfonamide]	1.5	14.1 ± 3.07	27.5	52.5	1.9
O=C(c1ccccc1)N1CCN(c2ccc([N+](=O)[O-])c(NC3CC3)c2)CC1 [TRV 1142, (4-(3-(cyclopropylamino)-4-nitrophenyl)piperazin-1-yl)(phenyl)methanone]	1.7	~10			
NS(=O)(=O)c1ccccc1-c1ccc([N+](=O)[O-])c(NCc2ccccc2)c1 [TRV 1121, 3′-(benzylamino)-4′-nitro-[1,1′-biphenyl]-2-sulfonamide]	<1.0	24.6 ± 6.83			
O=[N+]([O-])c1ccc(-c2ccc(-c3nn[nH]n3)cc2)cc1NCc1ccccc1 [TRV 1126, N-benzyl-4-nitro-4′-(2H-tetrazol-5-yl)-[1,1′-biphenyl]-3-amine]	41	1.1 ± 0.33	34.1	47.8	1.4
O=[N+]([O-])c1ccc(-c2cccc(CO)c2)cc1NCc1ccccc1 [TRV 1147]	<1.0	3.54 ± 0.46			
O=C(c1ccccc1)N1CCN(c2ccc([N+](=O)[O-])c(N3CCCC3)c2)CC1 [TRV 1141, (4-(4-nitro-3-(pyrrolidin-1-yl)phenyl)piperazin-1-yl)(phenyl)methanone]	<1.0	~10			
CCN(CC)C(=O)c1cccc(-c2ccc([N+](=O)[O-])c(NCc3ccccc3)c2)c1 [TRV 1110, 3′-(benzylamino)-N,N-diethyl-4′-nitrobiphenyl-3-carboxamide]	<1.0	0.7 ± 0.9			
O=C(c1ccccc1)N1CCN(c2cc(F)c(F)c(N3CCCC3)c2)CC1 [TRV 1156, (4-(3,4-difluoro-5-(pyrrolidin-1-yl)phenyl)piperazin-1-yl)(phenyl)methanone]		> 50			
O=C(c1cccc(-c2ccc([N+](=O)[O-])c(NCc3ccccc3)c2)c1)N1CCCCC1 [TRV 1111, (3′-(benzyl amino)-4′-nitrobiphenyl-3-yl)(piperidin-1-yl)methanone]	<1.0	0.33 ± 0.44			
CN(C)C(=O)C1CCN(c2ccc([N+](=O)[O-])c(NCc3ccccc3)c2)CC1 [TRV 1134, 1-(3-(benzylamino)-4-nitrophenyl)-N,N-dimethylpiperidine-4-carboxamide]		10.7 ± 0.54			
O=[N+]([O-])c1ccc(-c2cccc(C(O)(O)C(F)(F)F)c2)cc1NCc1ccccc1 [TRV 1153, 1-(3′-(benzylamino)-4′-nitro-[1,1′-biphenyl]-3-yl)-2,2,2-trifluoroethane-1,1-diol]		7.08 ± 0.19			
O=C(O)c1cccc(-c2ccc(Cl)c(Nc3ccccc3)c2)c1 [TRV 1097, 4′-chloro-3′-(phenylamino)-[1,1′-biphenyl]-3-carboxylic acid]		> 50			
CN(Cc1ccccc1)C(=O)c1cccc(-c2ccc([N+](=O)[O-])c(NCc3ccccc3)c2)c1 [TRV 1118, N-benzyl-3′-(benzylamino)-N-methyl-4′-nitrobiphenyl-3-carboxamide]		6.47 ± 4.92			
O=C(c1ccccc1)N1CCN(c2ccc(-n3cnnn3)c(NCc3ccccc3)c2)CC1 [TRV 1178, (4-(3-(benzylamino)-4-(1H-tetrazol-1-yl)phenyl)piperazin-1-yl)(phenyl)methanone]		> 50			
O=C(c1ccccc1)N1CCN(c2ccc(F)c(N3CCCC3)c2)CC1 [TRV 1162, (4-(4-fluoro-3-(pyrrolidin-1-yl)phenyl)piperazin-1-yl)(phenyl)methanone]		> 50			
CC(O)c1cccc(-c2ccc(OC(F)F)c(NCc3ccccc3)c2)c1 (centres unmarked) [TRV 1192, 1-(3′-(benzylamino)-4′-(difluoromethoxy)biphenyl-3-yl)ethanol]		~50			
O=C(C1CCN(c2ccc([N+](=O)[O-])c(NCc3ccccc3)c2)CC1)N1CCCC1 [TRV 1133, (1-(3-(benzyl amino)-4-nitrophenyl)piperidin-4-yl)(pyrrolidin-1-yl)methanone]		17.9 ± 13.3			
CN1CCN(c2cc(N3CCN(C(=O)c4ccccc4)CC3)ccc2[N+](=O)[O-])CC1 [TRV 1146, (4-(3-(4-methylpiperazin-1-yl)-4-nitrophenyl)piperazin-1-yl)(phenyl)methanone]		> 10			
CCCN(CCC)C(=O)c1cccc(-c2ccc([N+](=O)[O-])c(NCc3ccccc3)c2)c1 [TRV 1130, 3′-(benzylamino)-4′-nitro-N,N-dipropylbiphenyl-3-carboxamide]		> 50			
O=C(c1cccc(-c2ccc([N+](=O)[O-])c(NCc3ccccc3)c2)c1)N1CCCC1 [TRV 1117, (3′-(benzylamino)-4′-nitrobiphenyl-3-yl)(pyrrolidin-1-yl)methanone]	<1.0	2.94 ± 1.64			
CC1CN(c2ccc([N+](=O)[O-])c(Nc3ccccc3)c2)CC(C)N1C(=O)c1ccccc1 (centres unmarked) [TRV 1098, (2,6-dimethyl-4-(4-nitro-3-(phenyl amino)phenyl)piperazin-1-yl)(phenyl)methanone]		3.99 ± 3.77			
